Tests used:
MDA-MB-435 = assay: Cell-based antiproliferative (MTT) assay, MDA-MB-435 breast carcinoma line; conditions: Homo sapiens, MDA-MB-435, 120 h; 5 days post addition of test compound; mostly one experiment, average where repeated; read-out: MDA-MB435 IC50
Protocol: The estrogen receptor negative epithelial breast carcinoma line (MDA-MB-435) was purchased from American Type Cell Culture Collection (ATCC; Rockville, Md.) and was grown in the medium recommended by ATCC. For analysis of the effect of the test compounds on growth of these cells, the cells were plated at 2000 cells per well in a 96-well tissue culture plate, and were incubated overnight at 37° C. with 5% CO2. The next day, the test compounds were dissolved in 100% dimethyl sulfoxide (DMSO) to yield a 10 mM stock solution. Each compound was diluted with sterile medium to 1 mM in a sufficient quantity to yield a final concentration of 120 μM. The compounds were then serially diluted in medium with 1.2% DMSO. One-fourth final volume of the diluted compounds was transferred to 96 well plates. Test compounds were assayed in duplicate. DMSO was added to a row of "control cells" such that the final concentration of DMSO in each well was 0.3%. Wells to which no cells were added served as the "blank." Wells to which no inhibitor was added served as "no inhibitor control". The plates were returned to the incubator, and 5 days post addition of test compound, were analyzed as described below. […] MTT) was added to each well to yield a final concentration of 1 mg/mL. The plates were then incubated at 37° C. for 3 hours. The plates were centrifuged at 1000 rpm for 5 minutes prior to aspiration of the MTT-containing medium. The MTT-containing medium was then removed and 100 μL 100% ethanol was added to each well to dissolve the resulting formazan metabolite. To ensure complete dissolution, plates were shaken for 15 minutes at room temperature. Absorbencies were read in a microtiter plate reader (Molecular Dynamics) at a wavelength of 570 nm with a 650 nm reference. Percent inhibition was calculated by subtracting the absorbance of the blank (no cell) wells from all wells, then subtracting the division of the average absorbance of each test duplicate by the average of the controls from 1.00. Inhibitory concentrations (IC50) were determined from the linear regression of a plot of the logarithm of the concentration versus the percent inhibition.

Cyclin E/CDK2 = target: T1, Cyclin E/CDK2 (Homo sapiens, UniProt P24941); assay: CDK2 FlashPlate Assay (inhibition of Rb phosphorylation by Cyclin E/CDK2); format: biochemical; conditions: Table IA; recombinant human Cyclin E/CDK2, Rb substrate, 25 minutes room temperature
T1 construct: made in house; host or cells: insect cells

SW480 = assay: Cell-based antiproliferative (MTT) assay, SW480 colon carcinoma line; conditions: Homo sapiens, SW480, 96 h; 4 days post addition of test compound
Protocol: The estrogen receptor negative epithelial breast carcinoma line (MDA-MB-435) was purchased from American Type Cell Culture Collection (ATCC; Rockville, Md.) and was grown in the medium recommended by ATCC. For analysis of the effect of the test compounds on growth of these cells, the cells were plated at 2000 cells per well in a 96-well tissue culture plate, and were incubated overnight at 37° C. with 5% CO2. The next day, the test compounds were dissolved in 100% dimethyl sulfoxide (DMSO) to yield a 10 mM stock solution. Each compound was diluted with sterile medium to 1 mM in a sufficient quantity to yield a final concentration of 120 μM. The compounds were then serially diluted in medium with 1.2% DMSO. One-fourth final volume of the diluted compounds was transferred to 96 well plates. Test compounds were assayed in duplicate. DMSO was added to a row of "control cells" such that the final concentration of DMSO in each well was 0.3%. Wells to which no cells were added served as the "blank." Wells to which no inhibitor was added served as "no inhibitor control". The plates were returned to the incubator, and 5 days post addition of test compound, were analyzed as described below.
3-(4,5-Dimethylthiazole-2-yl)-2,5-diphenyl-2H-tetrazolium bromide (thiazolyl blue; MTT) was added to each well to yield a final concentration of 1 mg/mL. The plates were then incubated at 37° C. for 3 hours. The plates were centrifuged at 1000 rpm for 5 minutes prior to aspiration of the MTT-containing medium. The MTT-containing medium was then removed and 100 μL 100% ethanol was added to each well to dissolve the resulting formazan metabolite. To ensure complete dissolution, plates were shaken for 15 minutes at room temperature. Absorbencies were read in a microtiter plate reader (Molecular Dynamics) at a wavelength of 570 nm with a 650 nm reference. Percent inhibition was calculated by subtracting the absorbance of the blank (no cell) wells from all wells, then subtracting the division of the average absorbance of each test duplicate by the average of the controls from 1.00. Inhibitory concentrations (IC50) were determined from the linear regression of a plot of the logarithm of the concentration versus the percent inhibition.
The colon carcinoma line SW480 also was obtained from the ATCC and was tested according to the same protocol provided above with the following modification: cell line SW480 was plated at 1000 cells per well and analyzed at 4 days post addition of test compound.

SMILES | IC50 (MDA-MB-435) | IC50 (Cyclin E/CDK2) | IC50 (SW480)
CNCC#Cc1c(F)ccc2c1/C(=C/c1[nH]cnc1C)C(=O)N2 [RR, (Z)-1,3-Dihydro-5-fluoro-4-[3-(N-methylamino)-1-propynyl]-3-[(4-methyl-1H-imidazol-5-yl)methylene]-2H-indol-2-one] | < 3.5 µM | < 4 µM | < 1000 nM
CCC(N)(C#Cc1c(F)ccc2c1/C(=C/c1[nH]cnc1C)C(=O)N2)CC [CCC, (Z)-4-[3-Amino-3-ethyl-1-pentynyl]-1,3-dihydro-5-fluoro-3-[(4-methyl-1H-imidazol-5-yl)methylene]-2H-indol-2-one] | – | – | < 1000 nM
CCC(O)C#Cc1c(F)ccc2c1/C(=C/c1[nH]cnc1C)C(=O)N2 (racemic) [OO, rac-(Z)-1,3-Dihydro-5-fluoro-4-(3-hydroxy-1-pentynyl)-3-[(4-methyl-1H-imidazol-5-yl)methylene]-2H-indol-2-one] | < 3.5 µM | < 4 µM | < 1000 nM
CCC(O)C#Cc1c([N+](=O)[O-])ccc2c1/C(=C/c1[nH]cnc1C)C(=O)N2 (racemic) [PP, rac-(Z)-1,3-Dihydro-4-(3-hydroxy-1-pentynyl)-3-[(4-methyl-1H-imidazol-5-yl)methylene]-5-nitro-2H-indol-2-one] | < 3.5 µM | < 4 µM | < 1000 nM

— patent US6130239A, “4-Alkenyl- and 4-alkynyloxindoles” (Hoffmann-La Roche Inc., priority 1999, dated 2000)
